Experimental data from patent US20170128418A1, “COMPOSITIONS AND METHODS FOR IMPROVING LACTATION” (UNIVERSITY OF CINCINNATI, priority 2012, published 2017).

Tests used:
[1] = Circulating 5-HT and PTHrP in rats fed a 5-HTP supplemented diet; format: in vivo; conditions: rats fed 0.2% 5-HTP diet from d13 pregnancy through d9 lactation vs control breeder diet
Method: FIG. 1 depicts the circulating levels of (A) serum 5-HT and (B) plasma PTHrP in rats fed 0.2% 5-HTP from d13 pregnancy through d9 lactation compared to rats fed a control breeder diet.
Based on the foregoing results, studies were conducted to establish, in practice, that feeding a diet supplemented with 5-HTP would elevate circulating levels of serotonin (5-HT) and PTHrP. Rats were fed a diet supplemented with 0.2% 5-HTP, and circulating levels of 5-HT (serum) and PTHrP (plasma) in the rats fed 0.2% 5-HTP from d13 pregnancy through d9 lactation were compared to rats fed a control breeder diet.

PTHrP = assay: 5-HTP injection rescue of TPH1 knockout mice, plasma PTHrP (IRMA); format: in vivo; conditions: TPH1 knockout mice injected with 5-HTP; P<0.0001, R=0.92
Method: TPH1^−/−, and corresponding wild type control animals (C57BL/6J genetic background) were bred and maintained in our animal facility. All experiments were performed under protocols approved by the University of Cincinnati Institutional Animal Care and Use Committee. Plasma was collected for PTHrP assay from non-lactating wild type mice and both wild type and TPH1^−/− animals on day 10 of lactation. Mammary gland tissues (#4 glands counted from most rostral) were collected for immunostaining from TPH1^−/− animals and wild type controls on day 10 of lactation, and were fixed in 4% paraformaldehyde, before being paraffin embedded and sectioned.
PTHrP IRMA. Plasma PTHrP levels were measured using a two-site immunoradiometric assay specific for PTHrP 1-86 (Becton Dickinson), following the manufacturer's instructions. The detection limit (blank serum+1 standard deviation) was 0.3 pM under the conditions of this assay.
The conversion of L-tryptophan to 5-hydroxytryptophan (5-HTP) is the rate-limiting step in 5-HT synthesis; therefore we injected 5-HTP to bypass the enzyme deficiency in TPH1 mice, and measured PTHrP plasma levels.

[2] = Serum and milk calcium in rats fed a 5-HTP supplemented diet; format: in vivo; conditions: rats fed 0.2% 5-HTP diet from d13 pregnancy, vs control diet
Method: FIG. 2 depicts the serum and milk calcium concentrations in rats fed 0.2% 5-HTP (n=15) from d13 pregnancy-d9 lactation compared to rats fed a control (n=15) breeder diet at (A) day 1 of lactation and (B) day 9 of lactation.
Based on the foregoing results, studies were conducted to establish, in practice, that feeding a diet supplemented with 5-HTP would elevate circulating calcium levels in lactating animals. Serum and milk calcium concentrations were measured in rats fed a diet supplemented with 0.2% 5-HTP (n=15) from d13 pregnancy-d9 lactation, compared to rats fed a control (n=15) diet. Serum calcium concentrations were elevated by 5-HTP supplementation on dl of lactation, and subsequently, milk calcium levels were elevated by 5-HTP on d9 of lactation (FIG. 2).

[3] = tested on: vascular smooth muscle cells; conditions: previous study; cited from earlier work
HC11 cells = assay: PTHrP gene expression in lactogen-treated HC11 cells (real-time RT-PCR); format: cell-based, mouse; conditions: lactogen-treated rodent HC11 cells
Excerpt: (§1) Cell culture. Primary bovine mammary epithelial cells grown in collagen gels were induced to differentiate by release of the gel from the substratum, and treating with lactogenic hormones as described (15,31). The mouse mammary epithelial cells (HC11) were maintained under growth medium conditions, and lactogen-induced by treatment of 3 day confluent cultures with prolactin, insulin, and cortisol as previously described (17).
(§2) Quantitative real-time RT-PCR amplification. Total RNA was isolated using TRIreagent® (Molecular Research) following manufacturer's procedures. RNA quality was determined through spectrophometric methods on the Nanodrop 2000 (Thermo Scientific). A total of […] was reverse transcribed using the QuantiTect reverse transcription kit (Qiagen). Quantitative real-time RT-PCR was performed using the Applied Biosystems Step One Plus system (Applied Biosystems) using fast SYBR green master mix (Applied Biosystems). The following conditions were utilized: 95′C for 20 sec. followed by 40 cycles of 95′C for 3 sec., 60′C for 30 sec.
To determine whether PTHrP expression in mammary epithelial cells was directly responsive to 5-HT two cell models of lactogenic mammary epithelium were studied: lactogen-treated rodent HC11 cells, and primary bovine mammary epithelial cells embedded in floating collagen gels. […]

[4] = tested on: primary bovine mammary epithelial cells; assay: PTHrP gene expression in primary bovine mammary epithelial cells in floating collagen gels (real-time RT-PCR); format: cell-based; conditions: primary bovine mammary epithelial cells embedded in floating collagen gels
Excerpt: as §1
Primary bovine mammary epithelial cells (pBMEC) were obtained as a generous gift from Dr. Robert Collier at the University of Arizona and cultured as previously described (15, 31).
as §2, with “30 sec. […]” for “30 sec.”

mammary cells = assay: PTHrP induction by prolactin in mammary epithelium cell cultures; format: cell-based; conditions: conventional cell cultures of mammary epithelium
Excerpt: PTHrP is undetectable in the circulation except during lactation, in advanced metastatic disease, or in patients with hyperprolactinemia.

With `N[C@@H](Cc1c[nH]c2ccc(O)cc12)C(=O)O` [5-HTP, 5-Hydroxytryptophan] the “circulating 5-HT (serum)” value [1] was “elevation”, the “circulating PTHrP (plasma)” value [1] was “elevation” and the “plasma PTHrP” value (PTHrP) was “time-dependent increase”. For the same molecule, the milk calcium levels ([2]; d9 of lactation) was “elevated” and the serum calcium concentrations ([2]; dl of lactation) was “elevated”.

In the case of `NCCc1c[nH]c2ccc(O)cc12` [5-HT, serotonin], the PTHrP expression [3] is given as “induced”, the “PTHrP gene expression induction” value (HC11 cells) is given as 8 fold and the “PTHrP gene expression induction” value [4] is given as 20 fold.

B1: prolactin (protein, UniProt P01236 29-227, looked up)
Prolactin: LPICPGGAARCQVTLRDLFDRAVVLSHYIHNLSSEMFSEFDKRYTHGRGFITKAINSCHTSSLATPEDKEQAQQMNQKDFLSLIVSILRSWNEPLYHLVTEVRGMQEAPEAILSKAVEIEEQTKRLLEGMELIVSQVHPETKENEIYPVWSGLPSLQMADEESRLSAYYNLLHCLRRDSHKIDNYLKLLKCRIIHNNNC
notes: prolactin hormone
With B1 the PTHrP induction (mammary cells) was “did not induce”.
